Test results: ChEMBL document CHEMBL1136518, “Potent, selective inhibitors of protein tyrosine phosphatase 1B” (Bioorg Med Chem Lett, 2003)

Assays:
[1] = biological target: T1, Tyrosine-protein phosphatase non-receptor type 1 (Homo sapiens, UniProt P18031); assay: Inhibitory activity tested against Protein-tyrosine phosphatase 1B (PTP1B)
T1 sequence (P18031 whole entry): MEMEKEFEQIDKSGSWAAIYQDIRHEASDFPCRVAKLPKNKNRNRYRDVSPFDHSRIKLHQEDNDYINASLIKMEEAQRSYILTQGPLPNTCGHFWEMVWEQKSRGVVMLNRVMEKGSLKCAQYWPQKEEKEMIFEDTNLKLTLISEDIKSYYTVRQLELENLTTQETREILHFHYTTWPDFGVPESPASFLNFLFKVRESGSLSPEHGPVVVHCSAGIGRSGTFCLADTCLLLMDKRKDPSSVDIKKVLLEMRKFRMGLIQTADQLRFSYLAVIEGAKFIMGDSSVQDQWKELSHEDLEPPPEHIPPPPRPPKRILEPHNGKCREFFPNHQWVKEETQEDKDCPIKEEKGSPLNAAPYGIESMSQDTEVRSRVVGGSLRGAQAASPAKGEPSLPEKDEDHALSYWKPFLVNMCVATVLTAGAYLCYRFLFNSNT

[2] = biological target: T2, Tyrosine-protein phosphatase non-receptor type 2 (Homo sapiens, UniProt P17706); assay: Inhibitory activity tested against T-cell Protein tyrosine phosphatase 2 (TCPTP)
T2 sequence (P17706 whole entry): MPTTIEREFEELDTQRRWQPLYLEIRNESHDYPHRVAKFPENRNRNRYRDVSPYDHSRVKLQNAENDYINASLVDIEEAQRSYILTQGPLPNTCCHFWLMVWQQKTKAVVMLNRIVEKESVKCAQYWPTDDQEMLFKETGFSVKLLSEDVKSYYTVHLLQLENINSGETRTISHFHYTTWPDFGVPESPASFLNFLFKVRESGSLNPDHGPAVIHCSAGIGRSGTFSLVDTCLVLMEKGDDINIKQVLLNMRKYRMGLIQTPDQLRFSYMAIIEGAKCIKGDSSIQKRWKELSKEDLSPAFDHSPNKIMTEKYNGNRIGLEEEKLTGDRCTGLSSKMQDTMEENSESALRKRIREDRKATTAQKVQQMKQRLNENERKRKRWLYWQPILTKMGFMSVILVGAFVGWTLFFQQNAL

[3] = Inhibition of LAR (leukocyte common antigen-related) phosphatase
[4] = biological target: T3, M-phase inducer phosphatase 3 (Homo sapiens, UniProt P30307); assay: Inhibition of Cell division cycle 25 (Cdc25) phosphatase
T3 sequence (P30307 whole entry): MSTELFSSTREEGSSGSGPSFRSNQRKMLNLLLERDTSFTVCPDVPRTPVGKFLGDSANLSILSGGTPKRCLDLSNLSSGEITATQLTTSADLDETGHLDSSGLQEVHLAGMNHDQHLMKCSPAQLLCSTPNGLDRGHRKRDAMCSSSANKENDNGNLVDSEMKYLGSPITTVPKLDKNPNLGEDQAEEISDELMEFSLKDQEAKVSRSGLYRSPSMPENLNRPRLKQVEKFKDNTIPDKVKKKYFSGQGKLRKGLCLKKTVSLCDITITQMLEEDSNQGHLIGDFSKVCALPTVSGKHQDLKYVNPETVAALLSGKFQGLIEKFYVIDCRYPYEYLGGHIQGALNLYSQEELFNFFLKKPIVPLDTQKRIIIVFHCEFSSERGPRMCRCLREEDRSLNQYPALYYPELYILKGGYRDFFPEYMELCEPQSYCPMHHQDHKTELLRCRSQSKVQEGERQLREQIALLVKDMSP

[5] = biological target: T4, Receptor-type tyrosine-protein phosphatase C (Homo sapiens, UniProt P08575); assay: Inhibition of common leukocyte antigen CD45 phosphatase
T4 sequence (P08575 whole entry): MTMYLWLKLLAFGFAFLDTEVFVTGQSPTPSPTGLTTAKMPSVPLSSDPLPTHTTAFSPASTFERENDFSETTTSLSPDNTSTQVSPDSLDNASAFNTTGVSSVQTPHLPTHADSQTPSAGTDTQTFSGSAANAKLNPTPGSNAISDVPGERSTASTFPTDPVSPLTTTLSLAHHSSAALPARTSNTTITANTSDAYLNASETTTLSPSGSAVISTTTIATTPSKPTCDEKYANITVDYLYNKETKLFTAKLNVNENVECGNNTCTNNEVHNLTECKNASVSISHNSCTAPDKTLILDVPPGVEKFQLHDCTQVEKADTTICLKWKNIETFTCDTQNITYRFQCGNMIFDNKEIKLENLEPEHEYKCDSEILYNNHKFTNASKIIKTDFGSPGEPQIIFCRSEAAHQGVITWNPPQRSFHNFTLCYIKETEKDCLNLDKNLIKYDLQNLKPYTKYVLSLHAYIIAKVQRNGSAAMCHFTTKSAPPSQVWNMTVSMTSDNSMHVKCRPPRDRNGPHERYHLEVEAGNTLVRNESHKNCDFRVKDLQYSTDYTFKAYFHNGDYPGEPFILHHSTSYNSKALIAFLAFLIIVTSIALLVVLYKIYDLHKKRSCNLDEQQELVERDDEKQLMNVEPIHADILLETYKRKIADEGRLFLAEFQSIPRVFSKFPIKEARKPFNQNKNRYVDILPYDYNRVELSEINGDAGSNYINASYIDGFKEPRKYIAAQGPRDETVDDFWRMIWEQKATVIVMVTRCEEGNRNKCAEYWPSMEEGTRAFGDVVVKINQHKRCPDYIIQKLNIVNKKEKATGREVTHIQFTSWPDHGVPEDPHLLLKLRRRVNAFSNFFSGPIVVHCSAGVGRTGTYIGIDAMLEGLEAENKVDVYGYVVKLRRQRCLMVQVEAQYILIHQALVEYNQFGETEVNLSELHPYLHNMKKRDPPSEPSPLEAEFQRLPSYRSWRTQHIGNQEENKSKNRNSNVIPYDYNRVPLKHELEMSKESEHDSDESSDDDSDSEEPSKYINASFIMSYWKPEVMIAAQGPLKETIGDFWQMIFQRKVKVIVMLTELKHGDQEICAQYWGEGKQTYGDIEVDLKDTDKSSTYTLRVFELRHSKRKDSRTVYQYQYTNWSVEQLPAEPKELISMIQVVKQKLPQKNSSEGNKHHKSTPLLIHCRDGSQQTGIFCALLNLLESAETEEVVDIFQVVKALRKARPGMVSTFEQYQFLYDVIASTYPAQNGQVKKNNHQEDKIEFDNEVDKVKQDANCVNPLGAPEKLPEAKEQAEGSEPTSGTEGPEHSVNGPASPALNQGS

[6] = Inhibition of SHP-2 phosphatase

| Ki [1] | Ki [2] | SMILES | also measured |
| --- | --- | --- | --- |
| 120 nM | 240 nM | CCCC[C@H](NC(=O)CCCCNC(=O)C(Cc1ccc(N(C(=O)C(=O)O)c2ccccc2C(=O)O)c(CC)c1)NC(C)=O)C(=O)O (stereo not given in full) |  |
| 470 nM | 370 nM | CCc1cc(CC(NC(C)=O)C(=O)NCCCCC(=O)N[C@@H](CCS(C)(=O)=O)C(=O)O)ccc1N(C(=O)C(=O)O)c1ccccc1C(=O)O (stereo not given in full) |  |
| 130 nM | 510 nM | CCSCC[C@H](NC(=O)CCCCNC(=O)C(Cc1ccc(N(C(=O)C(=O)O)c2ccccc2C(=O)O)c(CC)c1)NC(C)=O)C(=O)O (stereo not given in full) |  |
| 1700 nM |  | CCc1cc(CC(NC(C)=O)C(=O)NCCCCC(=O)N[C@H](CCSC)C(=O)O)ccc1N(C(=O)C(=O)O)c1ccccc1C(=O)O (stereo not given in full) |  |
| 540 nM | 670 nM | CCc1cc(CC(NC(C)=O)C(=O)NCCCCC(=O)N[C@@H](CCSC)C(=O)OC)ccc1N(C(=O)C(=O)O)c1ccccc1C(=O)O (stereo not given in full) |  |

Second part, the compound before the results:

| SMILES | Ki [1] | Ki [2] | also measured |
| --- | --- | --- | --- |
| CCc1cc(CC(NC(C)=O)C(=O)NCCCCC(=O)N[C@@H](CCCCN)C(=O)O)ccc1N(C(=O)C(=O)O)c1ccccc1C(=O)O (stereo not given in full) | 710 nM | 820 nM |  |
| CCc1cc(CC(NC(C)=O)C(=O)NCCCCC(=O)N[C@H](C(=O)O)C2CCCCC2)ccc1N(C(=O)C(=O)O)c1ccccc1C(=O)O (stereo not given in full) | 250 nM | 290 nM |  |
| CCc1cc(CC(NC(C)=O)C(=O)NCCCCC(=O)NC(Cc2ccccc2)C(N)=O)ccc1N(C(=O)C(=O)O)c1ccccc1C(=O)O (stereo not given) | 1300 nM | 700 nM |  |
| CCc1cc(CC(NC(C)=O)C(=O)NCCCCC(=O)NCCc2ccccc2)ccc1N(C(=O)C(=O)O)c1ccccc1C(=O)O (stereo not given) | 3400 nM | 1400 nM |  |
| CCc1cc(CC(NC(C)=O)C(=O)NCCCCC(=O)N[C@H](C(=O)O)C(C)CC)ccc1N(C(=O)C(=O)O)c1ccccc1C(=O)O (stereo not given in full) | 430 nM | 400 nM |  |
| CCc1cc(CC(NC(C)=O)C(=O)NCCCCC(=O)O)ccc1N(C(=O)C(=O)O)c1ccccc1C(=O)O (stereo not given) | 2500 nM | 2200 nM |  |
| CCc1cc(CC(NC(C)=O)C(=O)NCCCCC(=O)N[C@@H](CCC(N)=O)C(=O)O)ccc1N(C(=O)C(=O)O)c1ccccc1C(=O)O (stereo not given in full) | 330 nM | 270 nM |  |
| CCc1cc(CC(NC(C)=O)C(=O)NCCCCC(=O)N[C@@H](CCSC)C(=O)O)ccc1N(C(=O)C(=O)O)c1ccccc1C(=O)O (stereo not given in full) |  |  | Ki [3]: 8750 nM; Ki [4]: > 300000 nM; Ki [5]: > 300000 nM; Ki [6]: 73200 nM |
| CCc1cc(CC(NC(C)=O)C(=O)NCc2ccc([N+](=O)[O-])cc2)ccc1N(C(=O)C(=O)O)c1ccccc1C(=O)O (stereo not given) | 540 nM | 450 nM |  |
| CCc1cc(CC(NC(C)=O)C(=O)NCc2ccc(OC)cc2)ccc1N(C(=O)C(=O)O)c1ccccc1C(=O)O (stereo not given) | 4700 nM | 3600 nM |  |
| CCc1cc(CC(NC(C)=O)C(=O)NCCCCC(=O)N[C@@H](Cc2ccccc2)C(=O)O)ccc1N(C(=O)C(=O)O)c1ccccc1C(=O)O (stereo not given in full) | 140 nM | 160 nM |  |
| CCc1cc(CC(NC(C)=O)C(=O)NCc2ccc(Cl)cc2)ccc1N(C(=O)C(=O)O)c1ccccc1C(=O)O (stereo not given) | 1200 nM | 1500 nM |  |
